Measurements reported in paper PMC12817916, “A small-molecule HSP90 inhibitor, NVP-HSP990, alleviates rotavirus infection” (Journal of Virology, 2025).

Experiments:
HSP90β = settings: targets the N-terminal of HSP90β; cited from earlier work
RV VP2, VP6, NSP4, NSP5 = assay: RV gene transcription and antigen expression in Caco-2 cells (qPCR, WB, IFA); type: cell-based, Rotavirus; settings: RV-infected Caco-2 cells, 18 h
Description: Caco-2 cells growing on coverslips were mock-infected with PBS or infected with RV Wa or SA11 strains (MOI = 1), then the cells were cultivated with DMEM containing 100 nM NVP-HSP990 or an equal volume of DMSO as a control for another 18 h after infection. The cells were then washed with PBS, fixed in 4% paraformaldehyde for 20 min, followed by permeabilization in 0.5% Triton X-100 for 10 min and blocking with 5% BSA (Beyotime, China) for 1 h at room temperature. The cells were then incubated with rabbit anti-ZO-1 monoclonal antibody (CST, USA) (1:100) or rabbit anti-RV VP6 polyclonal antibodies (CUSABIO, China) (1:50) for 2 h at room temperature, washed twice with PBS, and incubated with Cy3-conjugated goat anti-rabbit antibodies (Beyotime, China) (1:500) for 1 h at room temperature. In some experiments, the cells were also stained with FITC-conjugated goat anti-RV antibodies (Virostat, USA) (1:100) for 1 h at room temperature and followed by 5 µg/mL 2-(4-amidinophenyl)-6-indolecarbamidine dihydrochloride (DAPI) (Sigma-Aldrich, USA) staining for 10 min. The triple-stained cells were washed twice with PBS and mounted in Prolong Gold Antifade Reagent (CST, USA). Microscopic images were acquired with an EVOS M5000 system (Thermo Fisher Scientific, USA) using the built-in Celleste software (v.6.0). […] Minimal post-processing (image cropping and annotations) was applied through Adobe Illustrator 2019 (Adobe Systems, USA) to ensure readability. […]
MA104, Caco-2, and HT-29 cells were mock-infected with PBS, infected with RV Wa or SA11 strains (MOI = 3), or treated with 1 µM C16-PAF (C16) for 1 h. […] After protein quantification with a BCA kit (Beyotime, China), the protein samples were mixed with 25 µL 5× SDS loading buffer (Beyotime, China), boiled at 100°C for 5 min, chilled on ice, vortexed for seconds, and centrifuged at 12,000 × g for 3 min at room temperature. […]
(A) Caco-2 cells were infected with RV (Wa or SA11 strains) at varying MOIs (0.001–10), followed by treatment with 100 nM NVP-HSP990 or an equal volume of DMSO (as a control) for 24 h. Viral replication was assessed using PFA. […]

COc1cccc(-c2cc(F)ccc2[C@H]2Cc3nc(N)nc(C)c3C(=O)N2)n1 [NVP-HSP990]
IC50 (HSP90β): 0.8 nM
RV VP6 expression (IFA) (RV VP2, VP6, NSP4, NSP5; 100 nM): potent inhibition
RNA synthesis of RV proteins VP2, VP6, NSP4, and NSP5 (qPCR) (RV VP2, VP6, NSP4, NSP5; MOI = 1, 100 nM): significant reduction
RV structural protein VP6 (WB) (RV VP2, VP6, NSP4, NSP5; MOI = 1, 100 nM): remarkably reduced
